Measurements from patent US20240010726A1, “LFA-1 SIGNALLING MEDIATOR FOR USE IN CANCER THERAPY” (Universität Basel, priority 2020, published 2024).

Key:
[1] = system: focal adhesion kinase (FAK), TNF; test: FAK phosphorylation and TNF expression in activated PHA T cell blasts; format: cell-based, human; details: Mg^2+-restricted conditions
Procedure: FIG. 2: Extracellular magnesium promotes memory-specific activation via LFA-1. Glycolytic switch of human EM CD8 T cells (a) and naïve CD8 T cells (b) subsets upon injection of anti-CD3 Ab only, or anti-CD3 and anti-CD28 Ab, was assessed by metabolic flux analysis in medium containing either 1.2 mM Mg^2+, 0 mM Mg^2+, or medium which was reconstituted from 0 mM to 1.2 mM Mg^2+ immediately prior to activation (0→1.2 mM Mg^2+). (a) Results for human effector memory (EM) and (b) for human naïve CD8 T cells. Glycolytic switch was quantified by subtracting […] measurements. (c) Flow cytometric analysis of surface activation markers on human EM CD8 T cells 24 hours after activation by plate-bound anti-CD3 Ab and soluble anti-CD28 Ab, in 1.2 mM and 0 mM Mg^2+ media, respectively. (d) Abundance of inflammatory cytokines in corresponding EM CD8 T cell culture supernatants, determined by CBA. (e) CD11a (LFA-1) surface expression on human naïve and EM CD8 T cells as well PHA T cell blasts. Flow cytometry-based assessment of total LFA-1 expression assessed by mAb TS2/4 (f), closed conformation of αL by mAb HI111 (g), extended conformation of LFA-1 by mAb Kim127 (h), open head-piece conformation of LFA-1 by mAb m24 (i), phosphorylation of focal adhesion kinase (FAK) […] as well TNF expression (k)±TCR-induced activation in different extracellular Mg^2+ concentrations. […]

[2] = system: PSMA+ PC3-PIP cell line; test: Cytotoxicity assay with anti-PSMA CAR T cells (IncuCyte); format: cell-based, human; details: time-lapse killing; E:T 2:1; 0 mM vs 0.6 mM Mg^2+
Procedure: FIG. 3: Magnesium regulates LFA-1 mediated T cell activation and cytotoxicity as well BiTE- and CAR T-cell functionality. (a) Glycolytic switch of murine WT and LFA-1^-/- CTLs upon injection of anti-CD3/28 Ab in medium containing 1.2 mM Mg^2+ and 0 mM Mg^2+, presented as quantification of summarized data with n=4 mice. (b) Calcium flux in WT and LFA-1^-/- Jurkat T cells stimulated with anti-CD3 Ab in 1.2 mM and 0 mM Mg^2+ medium, respectively. Cells were loaded with Fluo4, and signal intensity as recorded by plate reader, was normalized to unstimulated baseline values. […] Quantified results of n=3 mice with 3 technical replicates each. […] The effector to target cell ratio was 3:1. Results are quantified of n=3 mice with 3 technical replicates each. (e) Representative CD11a (LFA-1) surface expression on human naïve and EM CD8 T cells, PHA T cell blasts and REP T cells, assessed by flow cytometry. […] The effector to target cell ratio was 1:1. Data is presented as quantified results of n=5 healthy donors (f, g, h), n=3 healthy donors with 2 technical replicates each or n=1 healthy donor with 4 technical replicates (j). […] Data is presented as quantified results of n=1 healthy donor with 4 technical replicates. […] (p) Abundance of IFNγ in cell culture supernatants corresponding to the conditions depicted in (o) at 24 hours was determined by ELISA (n=8, 3 independent experiments). […]

How did the “Phosphorylation of focal adhesion kinase (FAK)” value [1] turn out when `[Mg+2]` [Mg^2+, Magnesium] was run?
The value was “decreased”.

What about the “Cytolytic activity of CAR T cells against tumor target cells” value [2] of the same molecule?
The value was “impaired the cytolytic activity”.
